Test results published in paper PMC5218480 (PLoS ONE, 2017).

Tested on: MV-4-11 cells
Assay: Gene expression microarray analysis (Affymetrix PrimeView) and GSEA
Format: cell-based, human
Design: RFU PODN (11730768_x_at) / Fold change /veh PODN (11730768_x_at) / RFU LINC00158 (11744669_a_at) / Fold change /veh LINC00158 (11744669_a_at) / RFU DUSP10 (11751237_a_at) / Fold change /veh DUSP10 (11751237_a_at) / RFU ID3 (11757404_x_at) / Fold change /veh ID3 (11757404_x_at) / RFU PLEKHG5 (11737974_s_at) / Fold change /veh PLEKHG5 (11737974_s_at) / RFU LRRC4B (11730491_at) / Fold change /veh LRRC4B (11730491_at) / RFU GIMAP4 (11747438_a_at) / Fold change /veh GIMAP4 (11747438_a_at) / RFU KRT8 (11758183_x_at) / Fold change /veh KRT8 (11758183_x_at) / RFU CNN1 (11734310_a_at) / Fold change /veh CNN1 (11734310_a_at) / RFU VPS37D (11726825_at) / Fold change /veh VPS37D (11726825_at) / RFU C10orf10 (11716522_x_at) / Fold change /veh C10orf10 (11716522_x_at) / RFU KIR2DL2 /// KIR2DL4 /// KIR2DL5A /// KIR2DL5B /// KIR2DS1 /// KIR2DS2 /// KIR2DS3 /// KIR2DS4 /// KIR3DL3 /// KIR3DL3 /// KIR3DS1 (11738374_at) / Fold change /veh KIR2DL2 /// KIR2DL4 /// KIR2DL5A /// KIR2DL5B /// KIR2DS1 /// KIR2DS2 /// KIR2DS3 /// KIR2DS4 /// KIR3DL3 /// KIR3DL3 /// KIR3DS1 (11738374_at) / RFU C1QL1 (11718748_at) / Fold change /veh C1QL1 (11718748_at) / RFU TMPRSS4 (11747572_a_at) / Fold change /veh TMPRSS4 (11747572_a_at) / RFU HAMP (11756126_x_at) / Fold change /veh HAMP (11756126_x_at) / RFU RNFT2 (11725882_a_at) / Fold change /veh RNFT2 (11725882_a_at) / RFU NR4A2 (11747474_a_at) / Fold change /veh NR4A2 (11747474_a_at) / RFU ABCC12 (11746883_a_at) / Fold change /veh ABCC12 (11746883_a_at) / RFU TMEM136 (11760407_x_at) / Fold change /veh TMEM136 (11760407_x_at) / RFU CLDN22 /// WWC2 (11732394_at) / Fold change /veh CLDN22 /// WWC2 (11732394_at) / RFU HLA-DPB1 (11760878_x_at) / Fold change /veh HLA-DPB1 (11760878_x_at) / RFU SPINT1 (11716480_a_at) / Fold change /veh SPINT1 (11716480_a_at) / RFU GAP43 (11754022_s_at) / Fold change /veh GAP43 (11754022_s_at) / RFU A4GNT (11735810_at) / Fold change /veh A4GNT (11735810_at) / RFU PRB3 (11715151_x_at) / Fold change /veh PRB3 (11715151_x_at) / RFU TUBB4B (11761932_at) / Fold change /veh TUBB4B (11761932_at) / RFU CAPN14 (11732068_a_at) / Fold change /veh CAPN14 (11732068_a_at) / RFU TMCC2 (11721928_a_at) / Fold change /veh TMCC2 (11721928_a_at) / RFU IRGQ (11745062_a_at) / Fold change /veh IRGQ (11745062_a_at) / RFU FAM174B (11720279_a_at) / Fold change /veh FAM174B (11720279_a_at) / RFU TMPRSS4 (11748680_a_at) / Fold change /veh TMPRSS4 (11748680_a_at) / RFU FAM212B (11763350_a_at) / Fold change /veh FAM212B (11763350_a_at) / RFU PLEKHG5 (11743358_a_at) / Fold change /veh PLEKHG5 (11743358_a_at) / RFU ZSCAN30 (11745921_a_at) / Fold change /veh ZSCAN30 (11745921_a_at) / RFU CMKLR1 (11741424_a_at) / Fold change /veh CMKLR1 (11741424_a_at) / RFU LOC101060620 /// MAPK8IP1 (11723275_at) / Fold change /veh LOC101060620 /// MAPK8IP1 (11723275_at) / RFU SPTSSB (11747773_x_at) / Fold change /veh SPTSSB (11747773_x_at) / RFU PRSS12 (11739890_at) / Fold change /veh PRSS12 (11739890_at) / RFU BIN1 (11741810_x_at) / Fold change /veh BIN1 (11741810_x_at) / RFU WNT11 (11732464_a_at) / Fold change /veh WNT11 (11732464_a_at) / RFU C10orf10 (11716521_a_at) / Fold change /veh C10orf10 (11716521_a_at) / RFU C5orf56 (11738089_at) / Fold change /veh C5orf56 (11738089_at) / RFU CYB561 (11721691_x_at) / Fold change /veh CYB561 (11721691_x_at) / RFU ANKRD19P (11752326_a_at) / Fold change /veh ANKRD19P (11752326_a_at) / RFU OR2T12 /// OR2T33 /// OR2T8 (11738714_s_at) / Fold change /veh OR2T12 /// OR2T33 /// OR2T8 (11738714_s_at) / RFU VCAN (11748164_a_at) / Fold change /veh VCAN (11748164_a_at) / RFU JSRP1 (11732532_at) / Fold change /veh JSRP1 (11732532_at) / RFU KRTAP10-11 (11738290_x_at) / Fold change /veh KRTAP10-11 (11738290_x_at) / RFU MYO3A (11730013_a_at) / Fold change /veh MYO3A (11730013_a_at) / RFU EBF3 (11725865_a_at) / Fold change /veh EBF3 (11725865_a_at) / RFU CAMK2N1 (11719241_x_at) / Fold change /veh CAMK2N1 (11719241_x_at) / RFU C5orf56 (11738088_a_at) / Fold change /veh C5orf56 (11738088_a_at) / RFU OLFML3 (11715873_a_at) / Fold change /veh OLFML3 (11715873_a_at) / RFU LOC100653217 /// NTM (11731650_a_at) / Fold change /veh LOC100653217 /// NTM (11731650_a_at) / RFU MAPK11 (11762145_a_at) / Fold change /veh MAPK11 (11762145_a_at) / RFU FIZ1 (11724087_x_at) / Fold change /veh FIZ1 (11724087_x_at) / RFU OASL (11726364_x_at) / Fold change /veh OASL (11726364_x_at) / RFU SOX15 (11748057_x_at) / Fold change /veh SOX15 (11748057_x_at) / RFU CD79A (11719716_a_at) / Fold change /veh CD79A (11719716_a_at) / RFU HIST1H1D (11736915_at) / Fold change /veh HIST1H1D (11736915_at) / RFU CASKIN2 (11723855_a_at) / Fold change /veh CASKIN2 (11723855_a_at) / RFU LOC730098 (11760151_x_at) / Fold change /veh LOC730098 (11760151_x_at) / RFU OR4N2 (11742367_at) / Fold change /veh OR4N2 (11742367_at) / RFU PRRT2 (11749266_a_at) / Fold change /veh PRRT2 (11749266_a_at) / RFU SNX32 (11753110_a_at) / Fold change /veh SNX32 (11753110_a_at) / RFU CDHR5 (11726645_a_at) / Fold change /veh CDHR5 (11726645_a_at) / RFU RCAN1 (11760418_a_at) / Fold change /veh RCAN1 (11760418_a_at) / RFU FAM167A (11723789_a_at) / Fold change /veh FAM167A (11723789_a_at) / RFU FAM26E (11764081_at) / Fold change /veh FAM26E (11764081_at) / RFU ISYNA1 (11749810_s_at) / Fold change /veh ISYNA1 (11749810_s_at) / RFU ACY1 (11761880_at) / Fold change /veh ACY1 (11761880_at) / RFU 11764098_at / Fold change /veh 11764098_at / RFU SAMD14 (11745864_x_at) / Fold change /veh SAMD14 (11745864_x_at) / RFU NPB (11741838_a_at) / Fold change /veh NPB (11741838_a_at) / RFU TMPRSS6 (11731388_a_at) / Fold change /veh TMPRSS6 (11731388_a_at) / RFU KRTAP10-2 (11738614_at) / Fold change /veh KRTAP10-2 (11738614_at) / RFU ARHGAP8 /// PRR5-ARHGAP8 (11727945_x_at) / Fold change /veh ARHGAP8 /// PRR5-ARHGAP8 (11727945_x_at) / RFU KRTAP5-7 /// NADSYN1 (11734609_at) / Fold change /veh KRTAP5-7 /// NADSYN1 (11734609_at) / RFU RASL12 (11751679_a_at) / Fold change /veh RASL12 (11751679_a_at) / RFU CDKN2B (11736163_a_at) / Fold change /veh CDKN2B (11736163_a_at) / RFU PRF1 (11729649_at) / Fold change /veh PRF1 (11729649_at) / RFU, ZNF638 /// ZNF638-IT1 / Fold change vs veh, ZNF638 /// ZNF638-IT1 / RFU, PANK3 / Fold change vs veh, PANK3 / RFU, SH3YL1 / Fold change vs veh, SH3YL1 / RFU, ZEB2 / Fold change vs veh, ZEB2 / RFU, NRIP1 / Fold change vs veh, NRIP1 / RFU, PTTG1IP / Fold change vs veh, PTTG1IP / RFU, CAPN2 / Fold change vs veh, CAPN2 / RFU, MED14 / Fold change vs veh, MED14 / RFU, SNORA58 / Fold change vs veh, SNORA58 / RFU, C1orf63 / Fold change vs veh, C1orf63 / RFU, LRRFIP1 / Fold change vs veh, LRRFIP1 / RFU, NDUFAF7 / Fold change vs veh, NDUFAF7 / RFU, SLC12A2 / Fold change vs veh, SLC12A2 / RFU, IBTK / Fold change vs veh, IBTK / RFU, ESF1 / Fold change vs veh, ESF1 / Fold change vs veh, TMEM50B / RFU, TAOK1 / Fold change vs veh, TAOK1 / RFU, ACBD3 / Fold change vs veh, ACBD3 / RFU, TMA16 / Fold change vs veh, TMA16 / RFU, RWDD3 / Fold change vs veh, RWDD3 / RFU, BCAT1 / Fold change vs veh, BCAT1 / RFU, EDEM3 / Fold change vs veh, EDEM3 / RFU, TMEM33 / Fold change vs veh, TMEM33 / RFU, WDR75 / Fold change vs veh, WDR75 / RFU, AHCTF1 / Fold change vs veh, AHCTF1 / RFU, TFRC / Fold change vs veh, TFRC / RFU, ZDHHC17 / Fold change vs veh, ZDHHC17 / RFU, NOM1 / Fold change vs veh, NOM1 / RFU, ARL8B / Fold change vs veh, ARL8B / RFU, ZBTB11 / Fold change vs veh, ZBTB11 / RFU, TAMM41 / Fold change vs veh, TAMM41 / RFU, KIAA1704 /// LOC100996395 / Fold change vs veh, KIAA1704 /// LOC100996395 / RFU, ING1 / Fold change vs veh, ING1 / RFU, TRMT61B / Fold change vs veh, TRMT61B / RFU, FUBP3 / Fold change vs veh, FUBP3 / RFU, TP53 / Fold change vs veh, TP53 / RFU, TNKS2 / Fold change vs veh, TNKS2 / RFU, ZFP14 / Fold change vs veh, ZFP14 / RFU, ACTR2 / Fold change vs veh, ACTR2 / RFU, PPP3R1 / Fold change vs veh, PPP3R1 / RFU, PIK3R1 / Fold change vs veh, PIK3R1 / RFU, HNRNPA1 / Fold change vs veh, HNRNPA1 / RFU, RNF170 / Fold change vs veh, RNF170 / RFU, ZNF28 / Fold change vs veh, ZNF28 / RFU, RNGTT / Fold change vs veh, RNGTT / RFU, OGT / Fold change vs veh, OGT / RFU, BRD1 / Fold change vs veh, BRD1 / RFU, MARS / Fold change vs veh, MARS / RFU, ZNF655 / Fold change vs veh, ZNF655 / RFU, FAHD1 / Fold change vs veh, FAHD1 / RFU, BDP1 / Fold change vs veh, BDP1 / RFU, LRRCC1 / Fold change vs veh, LRRCC1 / RFU, ARID1A / Fold change vs veh, ARID1A / RFU, ZNF146 / Fold change vs veh, ZNF146 / RFU, ZNF330 / Fold change vs veh, ZNF330 / RFU, GPN3 / Fold change vs veh, GPN3 / RFU, C9orf123 / Fold change vs veh, C9orf123 / RFU, N4BP2L2 / Fold change vs veh, N4BP2L2 / RFU, ARFIP1 / Fold change vs veh, ARFIP1 / RFU, FAM179B / Fold change vs veh, FAM179B / RFU, BCL10 / Fold change vs veh, BCL10 / RFU, UHRF1BP1L / Fold change vs veh, UHRF1BP1L / RFU, BET1 / Fold change vs veh, BET1 / RFU, CNOT2 / Fold change vs veh, CNOT2 / RFU, ZNF268 / Fold change vs veh, ZNF268 / Fold change vs veh, ZNF507 / RFU, DGCR2 / Fold change vs veh, DGCR2 / RFU, WDSUB1 / Fold change vs veh, WDSUB1 / Fold change vs veh, HSP90B1 /// MIR3652 / RFU, ADSS / Fold change vs veh, ADSS / RFU, GK / Fold change vs veh, GK / RFU, ZNF148 / Fold change vs veh, ZNF148 / RFU, TAF9 / Fold change vs veh, TAF9 / RFU, SLC1A5 / Fold change vs veh, SLC1A5 / RFU, SLMO2 / Fold change vs veh, SLMO2 / RFU, ABCC4 / Fold change vs veh, ABCC4 / RFU, LOC101060439 /// RAP1B / Fold change vs veh, LOC101060439 /// RAP1B / RFU, RFX7 / Fold change vs veh, RFX7 / RFU, GTPBP10 / Fold change vs veh, GTPBP10 / RFU, CNEP1R1 / Fold change vs veh, CNEP1R1 / RFU, BIVM-ERCC5 /// ERCC5 / Fold change vs veh, BIVM-ERCC5 /// ERCC5 / RFU, ILF3 / Fold change vs veh, ILF3 / RFU 11762660_at / Fold change /veh 11762660_at / RFU VCAN (11757783_s_at) / Fold change /veh VCAN (11757783_s_at) / RFU DDX43 (11728927_at) / Fold change /veh DDX43 (11728927_at) / RFU KRT8 (11758188_x_at) / Fold change /veh KRT8 (11758188_x_at) / RFU NKD1 (11759106_at) / Fold change /veh NKD1 (11759106_at) / RFU SRD5A1 (11742802_a_at) / Fold change /veh SRD5A1 (11742802_a_at) / RFU TPSAB1 /// TPSB2 (11721975_s_at) / Fold change /veh TPSAB1 /// TPSB2 (11721975_s_at) / RFU GSTM3 (11746129_a_at) / Fold change /veh GSTM3 (11746129_a_at) / RFU IL23R (11737362_x_at) / Fold change /veh IL23R (11737362_x_at) / RFU TMEM51 (11727254_a_at) / Fold change /veh TMEM51 (11727254_a_at) / RFU PIWIL2 (11732686_x_at) / Fold change /veh PIWIL2 (11732686_x_at) / RFU ORM1 (11744905_x_at) / Fold change /veh ORM1 (11744905_x_at) / RFU CCDC152 (11743942_at) / Fold change /veh CCDC152 (11743942_at) / RFU ECM1 (11717891_a_at) / Fold change /veh ECM1 (11717891_a_at) / RFU IL23R (11748794_a_at) / Fold change /veh IL23R (11748794_a_at) / RFU TNFAIP8L3 (11732012_x_at) / Fold change /veh TNFAIP8L3 (11732012_x_at) / RFU MBOAT4 (11741988_at) / Fold change /veh MBOAT4 (11741988_at) / RFU 11764193_at / Fold change /veh 11764193_at / RFU TMEM53 (11763286_at) / Fold change /veh TMEM53 (11763286_at) / RFU MAGEB2 (11727129_at) / Fold change /veh MAGEB2 (11727129_at) / RFU TMEM200A (11744735_a_at) / Fold change /veh TMEM200A (11744735_a_at) / RFU CCDC152 (11751479_a_at) / Fold change /veh CCDC152 (11751479_a_at) / RFU FAM211A (11726209_a_at) / Fold change /veh FAM211A (11726209_a_at) / RFU RGS16 (11746705_a_at) / Fold change /veh RGS16 (11746705_a_at) / RFU VCAN (11755009_s_at) / Fold change /veh VCAN (11755009_s_at) / RFU RHOB (11743442_s_at) / Fold change /veh RHOB (11743442_s_at) / RFU RGS16 (11720943_a_at) / Fold change /veh RGS16 (11720943_a_at) / RFU RGS16 (11720944_at) / Fold change /veh RGS16 (11720944_at) / RFU, VPS4B / Fold change vs veh, VPS4B / RFU, CREB1 / Fold change vs veh, CREB1 / RFU, DNAJC13 / Fold change vs veh, DNAJC13 / RFU, GNAQ / Fold change vs veh, GNAQ / RFU, CDK5R1 / Fold change vs veh, CDK5R1 / RFU, ZRANB3 / Fold change vs veh, ZRANB3 / RFU, CUL4A / Fold change vs veh, CUL4A / RFU, CCNY / Fold change vs veh, CCNY / RFU, UFL1 / Fold change vs veh, UFL1 / RFU, COG3 / Fold change vs veh, COG3 / RFU, DIAPH2 / Fold change vs veh, DIAPH2 / RFU, SKA2 / Fold change vs veh, SKA2 / RFU, AFF3 / Fold change vs veh, AFF3 / RFU, LMF1 / Fold change vs veh, LMF1 / RFU, IPO11 / Fold change vs veh, IPO11 / RFU, DFFB / Fold change vs veh, DFFB / RFU, FOXP1 / Fold change vs veh, FOXP1 / RFU, CARD8 / Fold change vs veh, CARD8 / RFU, STRN3 / Fold change vs veh, STRN3 / RFU, ADK / Fold change vs veh, ADK / RFU, RASSF2 / Fold change vs veh, RASSF2 / RFU, WIPF1 / Fold change vs veh, WIPF1 / RFU, LARP1B / Fold change vs veh, LARP1B / RFU, RASA1 / Fold change vs veh, RASA1 / RFU, RB1 / Fold change vs veh, RB1 / RFU, PPFIA1 / Fold change vs veh, PPFIA1 / RFU, MAT2A / Fold change vs veh, MAT2A / RFU, CCT5 / Fold change vs veh, CCT5 / RFU, WDR92 / Fold change vs veh, WDR92 / RFU, CUX1 / Fold change vs veh, CUX1 / RFU, TTC7A / Fold change vs veh, TTC7A / RFU, TMEM135 / Fold change vs veh, TMEM135 / RFU, DEPTOR / Fold change vs veh, DEPTOR / RFU, CPM / Fold change vs veh, CPM / RFU, DNAJB6 / Fold change vs veh, DNAJB6 / RFU, CACNA2D3 / Fold change vs veh, CACNA2D3 / RFU, DTX4 / Fold change vs veh, DTX4 / RFU, TFCP2 / Fold change vs veh, TFCP2 / RFU, GMCL1 /// GMCL1P1 / Fold change vs veh, GMCL1 /// GMCL1P1 / RFU, AEBP2 / Fold change vs veh, AEBP2 / RFU, SNHG1 /// SNORD22 /// SNORD25 /// SNORD26 /// SNORD27 /// SNORD28 /// SNORD29 /// SNORD31 / Fold change vs veh, SNHG1 /// SNORD22 /// SNORD25 /// SNORD26 /// SNORD27 /// SNORD28 /// SNORD29 /// SNORD31 / Fold change (Aza/veh), C12orf56 (ProbeSet 11735607_a_at) / Fold change (ACY-1035/veh), C12orf56 (ProbeSet 11735607_a_at) / Fold change (Aza/veh), FGFR1OP (ProbeSet 11751329_s_at) / Fold change (ACY-1035/veh), FGFR1OP (ProbeSet 11751329_s_at) / Fold change (Aza/veh), VPS36 (ProbeSet 11739960_a_at) / Fold change (ACY-1035/veh), VPS36 (ProbeSet 11739960_a_at) / RFU SYPL1 (11715823_x_at) / Fold change /veh SYPL1 (11715823_x_at) / RFU IGFBP7 (11715501_s_at) / Fold change /veh IGFBP7 (11715501_s_at) / RFU REEP3 (11722064_at) / Fold change /veh REEP3 (11722064_at) / RFU IGLL1 (11728026_x_at) / Fold change /veh IGLL1 (11728026_x_at): dose or concentration left out as unconfirmed
Conditions: ProbeSet 11717702_a_at; LIST D

Compound: Nc1ccc(-c2cccs2)cc1NC(=O)c1ccc2c(c1)cc(C1CC1)n2CCN1CCOCC1 [ACY-1035]
- Fold change vs veh, RB1: 0.96
